Data: patent publication US20210300900A1, “OGA INHIBITOR COMPOUNDS” (Janssen Pharmaceutica NV, priority 2018, published 2021)
Where a name gives a salt, the structure may show the parent alone.

Assays:
[1] = target: T1, recombinant human Meningioma Expressed Antigen 5 (MGEA5), also referred to as O-GcNAcase (OGA) (Homo sapiens, UniProt O60502); experiment: OGA biochemical assay (inhibition of FM-GlcNAc hydrolysis, fluorescence); details: FM-GlcNAc substrate; for Emax: read-out: Enzymatic Emax (%); for IC50: read-out: Enzymatic hOGA, pIC50 (converted)
T1 construct: Full length OGA enzyme was purchased at OnGene (cat #TP322411); purchased OnGene (so in the source)
T1 sequence (O60502 1-916): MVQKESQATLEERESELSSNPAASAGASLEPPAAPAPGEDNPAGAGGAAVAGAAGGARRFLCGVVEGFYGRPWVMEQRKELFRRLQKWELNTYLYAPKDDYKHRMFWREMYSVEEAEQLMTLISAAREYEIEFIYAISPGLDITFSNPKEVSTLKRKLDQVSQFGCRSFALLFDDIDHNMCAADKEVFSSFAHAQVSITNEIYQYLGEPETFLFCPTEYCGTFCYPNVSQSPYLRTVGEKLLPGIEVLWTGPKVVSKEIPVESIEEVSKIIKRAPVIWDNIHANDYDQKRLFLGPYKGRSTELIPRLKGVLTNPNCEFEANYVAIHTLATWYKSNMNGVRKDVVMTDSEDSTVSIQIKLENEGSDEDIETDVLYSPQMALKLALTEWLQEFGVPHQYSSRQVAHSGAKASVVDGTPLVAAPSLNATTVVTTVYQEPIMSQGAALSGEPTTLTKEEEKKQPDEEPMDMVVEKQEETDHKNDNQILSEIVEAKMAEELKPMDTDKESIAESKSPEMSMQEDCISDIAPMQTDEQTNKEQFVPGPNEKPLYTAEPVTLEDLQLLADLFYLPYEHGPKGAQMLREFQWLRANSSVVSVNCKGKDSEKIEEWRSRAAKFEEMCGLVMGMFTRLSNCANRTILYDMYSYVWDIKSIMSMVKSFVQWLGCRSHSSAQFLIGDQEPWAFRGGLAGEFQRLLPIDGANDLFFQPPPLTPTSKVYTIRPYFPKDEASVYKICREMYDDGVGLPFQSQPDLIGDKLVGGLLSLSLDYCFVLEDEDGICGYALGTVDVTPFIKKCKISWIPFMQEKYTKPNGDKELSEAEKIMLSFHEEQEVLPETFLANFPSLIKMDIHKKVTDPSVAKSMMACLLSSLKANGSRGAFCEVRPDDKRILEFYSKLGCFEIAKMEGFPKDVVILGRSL
Outline: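 Full-length recombinant human OGA (2 nM) pre-incubated 60 min with compound, then FM-GlcNAc (100 uM final) added in 200 mM citrate/phosphate pH 7.2 with 0.005% Tween-20; 6 h at room temperature, stopped with pH 11.0 carbonate. Fluorescein read at ex 485/em 538 nm; IC50 and Hill coefficient from curve fit against no-inhibitor and saturating-standard controls.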

OGA = target: T2, OGA (Homo sapiens, UniProt O60502); experiment: OGA cellular assay (ICC detection of O-GlcNAcylated proteins in HEK293 cells inducible for P301L mutant human Tau); format: cell-based; details: 6 hours incubation; for Emax: HEK293, HEK293 cells inducible for P301L mutant human Tau; for Emax / Cellular Emax (%): maximum = Thiamet G 200 uM; for EC50 / Cellular hOGA; pEC50 / Cellular Emax (%): HEK293 cells inducible for P301L mutant human Tau; for EC50: read-out: Cellular hOGA, pEC50 (converted)
T2 construct: endogenous in cells; host or cells: HEK293 cells inducible for P301L mutant human Tau (isoform 2N4R)
T2 sequence (O60502 1-916): T1 sequence (O60502 1-916)
Procedure: HEK293 cells inducible for P301L mutant human Tau (isoform 2N4R) were established at Janssen. Thiamet-G was used for both plate validation (high control) and as reference compound (reference EC50 assay validation). OGA inhibition is evaluated through the immunocytochemical (ICC) detection of O-GlcNAcylated proteins by the use of a monoclonal antibody (CTD110.6; Cell Signaling, #9875) detecting O-GlcNAcylated residues as previously described (Dorfmueller et al. 2010 Chemistry & biology, 17:1250). Inhibition of OGA will result in an increase of O-GlcNAcylated protein levels resulting in an increased signal in the experiment. Cell nuclei are stained with Hoechst to give a cell culture quality control and a rough estimate of immediate compounds toxicity, if any. ICC pictures are imaged with a Perkin Elmer Opera Phenix plate microscope and quantified with the provided software Perkin Elmer Harmony 4.1.
Cells were propagated in DMEM high Glucose (Sigma, #D5796) following standard procedures. 2 days before the cell assay cells are split, counted and seeded in Poly-D-Lysine (PDL) coated 96-wells (Greiner, #655946) plate at a cell density of 12,000 cells per cm^2 (4,000 cells per well) in 100 μl of Assay Medium (Low Glucose medium is used to reduce basal levels of GlcNAcylation) (Park et al. 2014 The Journal of biological chemistry 289:13519). At the day of compound test medium from assay plates was removed and replenished with 90 μl of fresh Assay Medium. 10 μl of compounds at a 10 fold final concentration were added to the wells. Plates were centrifuged shortly before incubation in the cell incubator for 6 hours. DMSO concentration was set to 0.2%. Medium is discarded by applying vacuum. For staining of cells medium was removed and cells washed once with 100 μl D-PBS (Sigma, #D8537). From next step onwards unless other stated assay volume was always 50 μl and incubation was performed without agitation and at room temperature. Cells were fixed in 50 μl of a 4% paraformaldehyde (PFA, Alpha aesar, #043368) PBS solution for 15 minutes at room temperature. […] Before analysis samples were washed 2 times manually for 5 minutes in ICC base buffer.
Imaging is performed using Perkin Elmer Phenix Opera using a water 20×objective and recording 9 fields per well. Intensity readout at 488 nm is used as a measure of O-GlcNAcylation level of total proteins in wells. To assess potential toxicity of compounds nuclei were counted using the Hoechst staining. IC50-values are calculated using parametric non-linear regression model fitting. As a maximum inhibition Thiamet G at a 200 uM concentration is present on each plate. In addition, a concentration response of Thiamet G is calculated on each plate.

## CC(=O)Nc1ccnc(CN2CCC[C@H](Cc3cc(C)nc(C)c3)C2)c1 (as salt: HCl) [Product 31]
other
  melting point: 133 °C

## CC(=O)Nc1ccnc(C(C)N2CCC[C@H](Cc3cc(C)nc(C)c3)C2)c1 (stereo partly drawn) (as salt: HCl) [Product 32]
other
  melting point: 138 °C

## CC(=O)Nc1cncc(CN2CCC[C@H](Cc3cc(C)nc(C)c3)C2)c1 (as salt: HCl) [Product 34]
other
  melting point: 186.5 °C

## CC(=O)Nc1cc(CN2CCC[C@H](Cc3cc(C)nc(C)c3)C2)cnn1 (as salt: HCl) [Product 62]
other
  melting point: 206.5 °C

## CC(=O)Nc1cc(C(C)N2CCCC(CNc3cc(C)nc(C)c3)C2)[nH]n1 (stereo not drawn) (as salt: HCl) [Product 83]
other
  melting point: 245 °C

## COc1ccc(F)c(C(C)N2CCCC(CNc3cc(C)nc(C)c3)C2)n1 (stereo not drawn) (as salt: HCl) [Product 86]
other
  melting point: 206.8 °C

## COc1ccc(F)c(C(C)N2CCCC(CNc3cc(C)nc(C(F)(F)F)c3)C2)n1 (stereo not drawn) (as salt: HCl) [Product 96]
other
  melting point: 211.6 °C

## CC(=O)Nc1cc(CN2CCCC(COc3cc(C)nc(C)c3)C2)n[nH]1 (stereo not drawn) (as salt: hydrochloric acid salt) [Product 119]
other
  melting point: 192.2 °C

## CC(=O)Nc1cc(CN2CCC[C@H](Cc3cc(C)nc(C)c3)C2)nn1C [Product 6]
[1]
  Emax: 100%
  IC50: 174 nM
OGA
  Emax: 11%
  EC50: > 1000 nM

## CCOc1cc([C@H](C)N2CCC[C@H](Cc3cc(C)nc(C)c3)C2)n[nH]1 [Product 16]
[1]
  Enzymatic Emax (%): 101%
  Enzymatic hOGA; pIC50: 7.45
OGA
  Cellular hOGA; pEC50: 6.05
  Cellular Emax (%): 31%

## COCc1cc(C(C)N2CCC[C@H](Cc3cc(C)nc(C)c3)C2)n[nH]1 (stereo partly drawn) [Product 19]
[1]
  Emax: 101%
  IC50: 43.7 nM
OGA
  Emax: 42%
  EC50: > 1000 nM

## Cc1cc(C[C@H]2CCCN(Cc3cc(C4CC4)[nH]n3)C2)cc(C)n1 [Product 20]
[1]
  Emax: 96%
  IC50: 851 nM
OGA
  Emax: 11%
  EC50: > 1000 nM

## CCOc1nc(CN2CCC[C@H](Cc3cc(C)nc(C)c3)C2)c[nH]1 [Product 23]
[1]
  Emax: 102%
  IC50: 60.3 nM
OGA
  Emax: 70%
  EC50: 427 nM

## CC(=O)Nc1ccc(CN2CCC[C@H](Cc3cc(C)nc(C)c3)C2)s1 [Product 28]
[1]
  Emax: 100%
  IC50: 19.1 nM
OGA
  Emax: 75%
  EC50: 309 nM

## CC(=O)Nc1cncc(CN2CCC[C@H](Cc3cc(C)nc(C)c3)C2)c1 [Product 34]
[1]
  Emax: 91%
  IC50: 490 nM
OGA
  Emax: 4%
  EC50: > 1000 nM

## COc1ccc(F)c([C@H](C)N2CCC[C@H](Cc3cc(C)nc(C)c3)C2)n1 [Product 42]
[1]
  Enzymatic Emax (%): 103%
  Enzymatic hOGA; pIC50: 7.88
OGA
  Cellular hOGA; pEC50: 7.03
  Cellular Emax (%): 100%

## COc1cccc([C@H](C)N2CCC[C@H](Cc3cc(C)nc(C)c3)C2)n1 [Product 47]
[1]
  Enzymatic Emax (%): 102%
  Enzymatic hOGA; pIC50: 7.28
OGA
  Cellular hOGA; pEC50: 6.29
  Cellular Emax (%): 67%

## CC(=O)Nc1cnc(CN2CCC[C@H](Cc3cc(C)nc(C)c3)C2)cn1 [Product 63]
[1]
  Emax: 93%
  IC50: 1200 nM
OGA
  Emax: 25%
  EC50: > 1000 nM

## COc1cc(C[C@H]2CCCN(C(C)c3cc(NC(C)=O)[nH]n3)C2)cc(C)n1 (stereo partly drawn) [Product 66]
[1]
  Emax: 102%
  IC50: 18.6 nM
OGA
  Emax: 83%
  EC50: 200 nM

## COc1ccc(F)c(C(C)N2CCCC(c3cc(C)nc(C)c3)C2)n1 (stereo not drawn) [Product 74]
[1]
  Emax: 102%
  IC50: 35.5 nM
OGA
  Emax: 48%
  EC50: 676 nM

## COc1cc(C[C@H]2CCCN(C(C)c3nc(OC)ccc3F)C2)cc(C)n1 (stereo partly drawn) [Product 76]
[1]; listed as 76
  Enzymatic Emax (%): 101%
[1]
  IC50: 52.5 nM
OGA; listed as 76
  Cellular Emax (%): 30%
OGA
  EC50: > 1000 nM

## COc1ccc(F)c(C(C)N2CCC[C@H](Cc3cc(C)nc(C(F)(F)F)c3)C2)n1 (stereo partly drawn) [Product 77]
[1]
  Enzymatic Emax (%): 101%
  IC50: 14.8 nM
OGA
  Emax: 49%
  EC50: 955 nM

## CC(=O)Nc1cc(C(C)N2CCCC(Oc3cc(C)nc(C)c3)C2)n[nH]1 (stereo not drawn) [Product 80]
[1]
  Emax: 102%
  IC50: 102 nM
OGA
  Emax: 7%
  EC50: > 1000 nM

## COc1ccc(F)c(C(C)N2CCCC(Oc3cc(C)nc(C(F)(F)F)c3)C2)n1 (stereo not drawn) [Product 82]
[1]
  Emax: 97%
  IC50: 891 nM
OGA
  Emax: 6%
  EC50: > 1000 nM

## COc1ccc(F)c(C(C)N2CCCC(CNc3cc(C)nc(C)c3)C2)n1 (stereo not drawn) [Product 86]
[1]
  Emax: 102%
  IC50: 17 nM
OGA
  Emax: 94%
  EC50: 56.2 nM

## COc1cccc([C@H](C)N2CCC[C@@H](CNc3cc(C)nc(C(F)(F)F)c3)C2)n1 [Product 95]
[1]
  Enzymatic Emax (%): 103%
  Enzymatic hOGA; pIC50: 7.8
OGA
  Cellular hOGA; pEC50: <6
  Cellular Emax (%): 44%

## COc1ccc(F)c(C(C)N2CCCC(CNc3cc(C)nc(C(F)(F)F)c3)C2)n1 (stereo not drawn) [Product 96]
[1]
  Emax: 104%
  IC50: 13.5 nM
OGA
  Emax: 23%
  EC50: > 1000 nM

## CC(=O)Nc1cc(C(C)N2CCCC(Oc3ncc(C)nc3C)C2)n[nH]1 (stereo not drawn) [Product 117]
[1]
  Emax: 102%
  IC50: 64.6 nM
OGA
  Emax: 30%
  EC50: > 1000 nM

## COc1cc(C[C@H]2CCCN(C(C)c3nc(OC)ccc3F)C2)cc(C)n1 (stereo partly drawn) [Product 118]
[1]
  Emax: 99%
  IC50: 87.1 nM
OGA; listed as 118
  Cellular Emax (%): 82%
OGA
  EC50: 219 nM

## COc1ccc(F)c(C(C)N2CCCC(Oc3cc(C)nc(C)c3)C2)n1 (stereo not drawn) [Product 137]
[1]
  Emax: 102%
  IC50: 107 nM
OGA
  Emax: 4%
  EC50: > 1000 nM

## CCOc1cc(CN2CCC[C@H](Cc3cc(C)nc(C)c3)C2)n(C)n1 [Product 162]
[1]
  Enzymatic Emax (%): 36%
OGA
  Emax: -6%
  EC50: > 1000 nM
